The source made the active and inactive calls. The rule behind the calls is not given here.
Columns and labels:
[1] = Inhibition of Saccharomyces cerevisiae alpha-glucosidase using 4-nitrophenyl alpha-D-glucopyranoside as substrate preincubated for 120 mins
Saccharomyces cerevisiae [2] = test: Irreversible inhibition of Saccharomyces cerevisiae alpha-glucosidase using 4-nitrophenyl alpha-D-glucopyranoside as substrate at 300 uM after 30 mins
Saccharomyces cerevisiae [3] = test: Time dependent inhibition of Saccharomyces cerevisiae alpha-glucosidase using 4-nitrophenyl alpha-D-glucopyranoside as substrate
Saccharomyces cerevisiae [4] = test: Inhibition of Saccharomyces cerevisiae alpha-glucosidase using 4-nitrophenyl alpha-D-glucopyranoside as substrate

| IC50 [1] | inhibition (Saccharomyces cerevisiae [2]) | TDI (Saccharomyces cerevisiae [3]) | inhibition (Saccharomyces cerevisiae [4]) | SMILES |
| --- | --- | --- | --- | --- |
| 2.47 µM | – | – | – | N#Cc1c(NC(=O)CC2SC(N)=NC2=O)sc2c1CCCCCC2 (racemic) [listing 1 of 2 here] |
| 27.1 µM | – | – | – | CC(C)(C)C1CCc2c(sc(NC(=O)CC3SC(N)=NC3=O)c2C#N)C1 (racemic) [listing 1 of 2 here] |
| – | Active | Active | Active | CC(C)(C)C1CCc2c(sc(NC(=O)CC3SC(N)=NC3=O)c2C#N)C1 (racemic) [listing 2 of 2 here] |
| – | Active | Active | Active | N#Cc1c(NC(=O)CC2SC(N)=NC2=O)sc2c1CCCCCC2 (racemic) [listing 2 of 2 here] |
| – | – | – | inactive | CC(C)(C)C1CCc2c(sc(NC(=O)CC3SC(N)=NC3=O)c2C#N)C1 (single isomer, unassigned; enantiomer 1) |
| – | – | – | inactive | N#Cc1c(NC(=O)CC2SC(N)=NC2=O)sc2c1CCCCCC2 (single isomer, unassigned; enantiomer 1) |
| – | – | – | inactive | CC(C)(C)C1CCc2c(sc(NC(=O)CC3SC(N)=NC3=O)c2C#N)C1 (single isomer, unassigned; enantiomer 2) |
| – | – | – | inactive | N#Cc1c(NC(=O)CC2SC(N)=NC2=O)sc2c1CCCCCC2 (single isomer, unassigned; enantiomer 2) |
